Measured values reported in paper PMC11480411, “Mucosal sugars delineate pyrazine vs pyrazinone autoinducer signaling in Klebsiella oxytoca” (Nature Communications, 2024).
“And” between values parts separate entries of the source, which are not always exact repeats. Equal entries are not always repeated.

Experiments:
[1] = tested on: 314-member panel of human G protein-coupled receptors (GPCRs); experiment: PRESTO-Tango screen of 314-member human GPCR panel; assay type: cell-based; details: 100 µM, HTLA cells
Protocol: The PRESTO-Tango analyses were performed as previously published. Briefly, HTLA cells, a HEK293 cell line that stably expresses β-arrestin-TEV and tTA-Luciferase (a kind gift from Gilad Barnea, Brown University), were plated in 96-well tissue culture plates (Eppendorf) in DMEM containing 10% FBS and 1% Penicillin/Streptomycin. One day after plating (after reaching approximately 90% confluence), 200 ng per well GPCR-Tango plasmids[37] in 20 μL DMEM were individually mixed with 400 ng polyethylenimine (Polysciences) in an equal volume of DMEM and incubated for 20 min at room temperature before adding the transfection mixture to the HTLA cells. 16-24 h after transfection, medium was replaced with 180 μL fresh DMEM containing 1% Penicillin/Streptomycin and 10 mM HEPES and 20 μL of 3 or 3-Homo to reach a final concentration of 100 μM. Supernatants were aspirated 20 h after stimulation and 50 μl per well of Bright-Glo solution (Promega) diluted 20-fold with PBS containing 20 mM HEPES was added into each well. After 15 min incubation at room temperature, luminescence was quantified using a Spectramax i3x microplate reader (Molecular Devices). Activation fold for each sample was calculated by dividing relative luminescence units (RLU) for each condition by RLUs from PBS control. […]

HRH3 = target: T1, HRH3 (Homo sapiens, UniProt Q9Y5N1); experiment: PRESTO-Tango GPCR screen and dose-response; assay type: cell-based; details: for GPCR activation (heatmap value): HRH3, 100 µM; for HRH3 dose-response raw reporter signal (Fig. 5b source data): replicate wells
T1 construct: expressed in transfected cells; host or cells: HTLA cells (HEK293 line stably expressing β-arrestin-TEV and tTA-Luciferase)
Procedure, shortened: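 Each receptor was expressed from a Tango plasmid in HTLA cells, which stably carry β-arrestin-TEV and a tTA-driven luciferase reporter. Single-point screening used 100 μM final compound for 20 h, and the signal was normalised to PBS control. Concentration-response testing spanned 10^−4 to 10^−15 M.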

∆pyr K. oxytoca = experiment: RNA-seq of compound-supplemented ∆pyr K. oxytoca; assay type: cell-based, Klebsiella oxytoca ATCC 8724; details: 10 µM
Protocol: A ∆pyr K. oxytoca glycerol stock was streaked onto an LB-Agar plate supplemented with spectinomycin (50 µg/mL) and incubated aerobically at 30°C for 24 h in a stationary incubator. Single colonies were grown for 24 h aerobically in 5 mL of M9 minimal medium supplemented with 5 g/L casamino acids and 0.4% D-galactose at 30 °C and 250 rpm. Each ∆pyr K. oxytoca overnight culture was diluted 1:1000 into fresh medium (5 mL) and incubated aerobically at 30 °C and 250 rpm to mid-exponential growth (OD600 = 0.8). These conditions abrogated both detectable pyrazine and pyrazinone production. At this point, 10 µM of compound in DMSO, were added to the cultures; an equal volume of DMSO was added to cultures without compound as a solvent vehicle control. The cultures were incubated under aerobic conditions with the compounds for one hour at 30 °C and at 250 rpm. After incubation, the cultures were centrifuged, the supernatants were decanted, and the cell pellets were quickly resuspended in 5 mL of Bacterial RNAProtect (Qiagen). The samples were centrifuged again, and the pellets were frozen on dry ice and stored at −80 °C until RNA extraction. The processed cell pellets were thawed on ice and resuspended in 200 µL of lysis buffer (10 mM Tris, 1 mM EDTA, 5 mg/mL lysozyme, 12.5 µg/mL proteinase K [pH 8.0]) and incubated at room temperature for 10 min. The RNA was extracted via the Qiagen RNeasy Mini kit, treated with TURBO DNase in a total volume of 100 µL at room temperature for 30 min, and extracted again using an RNeasy Mini kit. RNA-seq analysis was conducted by the Yale Center for Genome Analysis. Sequences were aligned to the K. oxytoca ATCC 8724 genome (NC_016612.1). Differential expression analysis was performed through DESeq2 and pathway enrichment analysis was performed through the Funage-Pro web-based platform.

T1 sequence (Q9Y5N1 whole entry): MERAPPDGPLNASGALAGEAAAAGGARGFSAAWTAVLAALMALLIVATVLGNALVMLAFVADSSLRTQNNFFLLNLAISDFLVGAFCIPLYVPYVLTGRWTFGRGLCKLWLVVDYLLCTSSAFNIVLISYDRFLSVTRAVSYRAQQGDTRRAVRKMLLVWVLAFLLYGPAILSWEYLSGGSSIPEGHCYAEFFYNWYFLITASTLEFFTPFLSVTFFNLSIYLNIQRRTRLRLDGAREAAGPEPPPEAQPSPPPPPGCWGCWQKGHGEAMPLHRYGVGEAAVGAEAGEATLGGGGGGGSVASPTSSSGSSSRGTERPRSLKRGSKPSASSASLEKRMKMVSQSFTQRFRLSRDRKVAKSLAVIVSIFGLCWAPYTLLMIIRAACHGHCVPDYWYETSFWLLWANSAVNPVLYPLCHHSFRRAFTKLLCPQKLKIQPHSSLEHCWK

Structure (SMILES)	selectivity across the GPCR panel [1]	GPCR activation (heatmap value) (HRH3)	HRH3 dose-response raw reporter signal (Fig. 5b source data) (HRH3; Log(10)Conc (M) -4)	HRH3 dose-response raw reporter signal (Fig. 5b source data) (HRH3; Log(10)Conc (M) -5)	HRH3 dose-response raw reporter signal (Fig. 5b source data) (HRH3; Log(10)Conc (M) -6)	HRH3 dose-response raw reporter signal (Fig. 5b source data) (HRH3; Log(10)Conc (M) -7)	HRH3 dose-response raw reporter signal (Fig. 5b source data) (HRH3; Log(10)Conc (M) -8)	HRH3 dose-response raw reporter signal (Fig. 5b source data) (HRH3; Log(10)Conc (M) -9)	HRH3 dose-response raw reporter signal (Fig. 5b source data) (HRH3; Log(10)Conc (M) -10)	HRH3 dose-response raw reporter signal (Fig. 5b source data) (HRH3; Log(10)Conc (M) -11)	HRH3 dose-response raw reporter signal (Fig. 5b source data) (HRH3; Log(10)Conc (M) -12)	HRH3 dose-response raw reporter signal (Fig. 5b source data) (HRH3; Log(10)Conc (M) -13)	HRH3 dose-response raw reporter signal (Fig. 5b source data) (HRH3; Log(10)Conc (M) -14)	HRH3 dose-response raw reporter signal (Fig. 5b source data) (HRH3; Log(10)Conc (M) -15)	number of differentially regulated genes (∆pyr K. oxytoca; one hour, vs DMSO, Padj < 0.05, abs(log2FC) > 1)	effect on enterobactin BGC transcription (∆pyr K. oxytoca; vs DMSO control, RNA-seq)	KEGG pathway enrichment neglogP: ABC Transporters, upregulated (∆pyr K. oxytoca; Funage-Pro, 3 upreg)	KEGG pathway enrichment neglogP: Biosynthesis of siderophore group nonribosomal peptides, upregulated (∆pyr K. oxytoca; Funage-Pro, 3 upreg)	effect on yersiniabactin BGC transcription (∆pyr K. oxytoca; RNA-seq, pyrazinone 3 compared with pyrazine 7)
CC(C)Cc1ncc(CCCCNC(=N)N)[nH]c1=O [3-Homo]	selective agonists for histamine receptor H4	-0.5013	262 and 192 and 404	245 and 283 and 383	192 and 292 and 463	286 and 312 and 310	174 and 312 and 371	227 and 248 and 307	124 and 254 and 251	177 and 189 and 218	112 and 153 and 198	130 and 206 and 248	97 and 162 and 233	150 and 124 (2×)	–	–	–	–	–
CC(C)Cc1ncc(CCCNC(=N)N)[nH]c1=O [compound 3]	selective agonists for histamine receptor H4	-0.154	248 and 233 and 159	121 and 136 and 127	224 and 147 and 106	127 and 100 and 124	165 and 200 and 159	144 and 133 and 142	130 and 100 and 103	156 and 177 and 165	103 and 171 and 100	124 and 189 and 112	115 and 200 and 124	106 and 271 and 127	561 genes	significantly enhanced transcription of the enterobactin BGC	5.638	9.097	prominently upregulated the yersiniabactin BGC
